Experimental data as given in patent US12262713B2, “Method of controlling weeds” (SUMITOMO CHEMICAL COMPANY, LIMITED, priority 2018, dated 2025).
Counter-ions that a name gives are not always drawn.

Assays:
Type in all cases: in vivo
[1] = test system: glyphosate-resistant Amaranthus palmeri in which the number of copies of EPSPS gene had been increased; assay: Foliar spray pot test in greenhouse, herbicidal effect (Example 29); conditions: foliar spray 200 L/ha at 18 days, rated 14 days after treatment, rating 0 to 100
Experimental: (§1) In a plastic pot filled with soli were seeded glyphosate-resistant Amaranthus palmeri in which the number of copies of EPSPS gene had been increased (produced by Azlin Seed Service) and glyphosate-sensitive Amaranthus palmeri (produced by Azlin Seed Service). The weeds were cultivated in a greenhouse for 18 days, and then an aqueous spray liquid [i.e., a liquid prepared by diluting a predetermined amount of a trifludimoxazin formulation (i.e., an emulsifiable concentrate prepared by mixing 20 parts of trifludimoxazin with 80 parts of a liquid cocktail (i.e., a mixture of 5 parts of cyclohexanone and 1 part of SORPOL 2680X (manufactured by TOHO Chemical Industry Co., Ltd.))) with water containing a spreading agent] was sprayed uniformly from above the weeds at the amount of 200 L/ha using a sprayer. Subsequently, the weeds were allowed to grow in a greenhouse for 14 days, and then the herbicidal effect was examined. As a reference example, the same procedure was carried out, except that the trifludimoxazin formulation was replaced with a predetermined amount of a glyphosate formulation (i.e., a soluble liquid containing 660 g/L of glyphosate potassium salt: “ROUNDUP MAXLOAD” (manufactured by Nissan Chemical Corporation). The results are shown in the table 1.

[2] = test system: glyphosate-sensitive Amaranthus palmeri; assay: as above; conditions: foliar spray 200 L/ha at 18 days, rated 14 days after treatment, rating 0 to 100
Experimental: as §1

[3] = test system: glyphosate-resistant weeds (Amaranthus palmeri, waterhemp, kochia, marestail, Guernsey fleabane, fleabane, goosegrass, darnel, volunteer glyphosate-tolerant …); assay: Soil treatment pot test on day of seeding (Example 1); conditions: soil treatment at 6.25, 12.5, 25, 50, 100 or 150 g/ha; 200 L/ha; twenty-eight days after the treatment
Experimental: (§2) In a plastic pot filled with soil are seeded glyphosate-resistant Amaranthus palmeri in which the number of copies of EPSPS gene has been increased, glyphosate-resistant waterhemp in which the number of copies of EPSPS gene has been increased, glyphosate-resistant kochia in which the number of copies of EPSPS gene has been increased, marestail which is resistant to glyphosate by involving an ABC transporter, Guernsey fleabane which is resistant to glyphosate by involving an ABC transporter, fleabane which is resistant to glyphosate by involving an ABC transporter, glyphosate-resistant goosegrass having Thr102Ile, glyphosate-resistant goosegrass having Pro106Ser, glyphosate-resistant goosegrass having Pro106Ala, glyphosate-resistant goosegrass having Pro106Leu, glyphosate-resistant goosegrass having Thr102Ile and Pro106Ser, glyphosate-resistant darnel having Thr102Ile, glyphosate-resistant darnel having Pro106Ser, glyphosate-resistant darnel having Pro106Ala, glyphosate-resistant darnel having Pro106Leu, volunteer glyphosate-tolerant soybean, and volunteer glyphosate-tolerant cotton. On the same day, the soil is treated with trifludimoxazin at the application rate of 6.25, 12.5, 25, 50, 100 or 150 g/ha. The amount of a liquid sprayed is 200 L/ha. Subsequently, the plants are cultivated in a greenhouse.

[4] = test system: glyphosate-resistant weeds (Amaranthus palmeri, waterhemp, kochia, marestail, Guernsey fleabane, fleabane, goosegrass, darnel, volunteer glyphosate-tolerant …); assay: Foliar treatment pot test 21 days after seeding (Example 2); conditions: foliage application at 6.25, 12.5, 25, 50, 100 or 150 g/ha; 200 L/ha; fourteen days after the treatment
Experimental: as §2, with “The plants are cultivated in a greenhouse for 21 days, and then trifludimoxazin is applied to foliage of” for “On”, “plants” for “same day, the soil is treated with trifludimoxazin”, “at” for “at the”

Row | SMILES | Effect on glyphosate-resistant Amaranthus palmeri ([1]; application rate 1540 g/ha) | Effect on glyphosate-resistant Amaranthus palmeri ([1]; application rate 6160 g/ha) | Effect on glyphosate-sensitive Amaranthus palmeri ([2]; application rate 385 g/ha) | Effect on glyphosate-sensitive Amaranthus palmeri ([2]; application rate 1540 g/ha) | Effect on glyphosate-resistant Amaranthus palmeri ([1]; application rate 6.25 g/ha) | Effect on glyphosate-resistant Amaranthus palmeri ([1]; application rate 12.5 g/ha) | Effect on glyphosate-resistant Amaranthus palmeri ([1]; application rate 25 g/ha) | Effect on glyphosate-sensitive Amaranthus palmeri ([2]; application rate 6.25 g/ha) | Effect on glyphosate-sensitive Amaranthus palmeri ([2]; application rate 12.5 g/ha) | Effect on glyphosate-sensitive Amaranthus palmeri ([2]; application rate 25 g/ha) | effect against the weeds [3] | effect against the weeds [4]
1 | O=C(O)CNCP(=O)(O)O [Glyphosate potassium salt, glyphosate potassium salt] | 20 | 70 | 100 | 100 |  |  |  |  |  |  |  | 
2 | C#CCN1C(=O)C(F)(F)Oc2cc(F)c(-n3c(=O)n(C)c(=S)n(C)c3=O)cc21 [Trifludimoxazin, trifludimoxazin] |  |  |  |  | 100 | 100 | 100 | 65 | 70 | 80 | significant effect | significant effect
